Values quoted from earlier work as cited in patent publication EP0495131B1, “AGENT FOR PREVENTING AND TREATING HEPATITIS” (priority 1990, dated 1992).

Tested on: hepatitis, especially B-type hepatitis
Conditions: percentage of patients in which antigen is converted into negative and antibody into positive; anti-virus agents for hepatitis

| Compound | rate of the seroconversion (SC rate) |
| --- | --- |
| Nc1ncnc2c1ncn2[C@@H]1O[C@H](CO)[C@@H](O)[C@@H]1O [Ara-A, adenine arabinoside] | 0-30% |
| Nc1nc2c(ncn2COCCO)c(=O)[nH]1 [acyclovir] | about 27% |
